Measured values taken from article PMC8869720, “A Sensitive Monoclonal-Antibody-Based ELISA for Forchlorfenuron Residue Analysis in Food Samples” (Biosensors, 2022).
In brackets after ≈: the same amount, converted by molar mass. Read-outs that look alike come from different tables or passages of the source.

Experiments:
[1] = test system: anti-CPPU mAb; experiment: optimized indirect competitive ELISA (icELISA) with anti-CPPU monoclonal antibody; type: binding, mouse; settings: for Cross-Reactivity: CR (%) = IC50 CPPU/IC50 structural analogue × 100
Experimental: (§1) The icELISA protocol was performed as described previously. Briefly, 100 µL/well of coating antigen (1 µg/mL in CBS) was added to 96-well microtiter plates and stored at 37 °C overnight. The plate was rinsed twice with washing buffer and blocked by PBST containing 5% skimmed milk powder (120 µL/well) for 3 h at 37 °C. Then, the plate was rinsed twice and dried at 37 °C for 60 min. CPPU standard in PBS (50 µL) and the antibodies diluted in PBS (50 µL) were added and incubated at 37 °C for 40 min. After rinsing five times, the goat anti-mouse IgG-HRP was added (100 µL/well), followed by incubation for 30 min at 37 °C. After rinsing five times, the TMB solution (100 µL/well) was added and incubated for another 10 min at 37 °C. Stopping reagent (50 µL/well) was injected into each well to stop the chromogenic reaction, and the absorbance at 450 nm was measured using a microplate reader.
Many reports have shown that the immunoassay is an equilibrium binding reaction, and the experimental parameters used can affect the performance of the ELISA [28, 31, 32, 33]. In order to improve sensitivity of the established icELISA, the assay was optimized on concentrations of coating antigen and antibody, working buffer, and IgG-HRP dilution multiple. A standard curve for CPPU was obtained under optimal conditions by four-parameter sigmoidal fitting with Origin 9.0 software (OriginLab Corporation, Northampton, MA, USA). The IC10, IC20, IC50, and IC80 values correspond to the CPPU concentration levels that inhibit 10%, 20%, 50%, and 80% of the binding between mAb and the coating antigen, respectively. The IC10 value represents the LOD of the assay. The concentration levels from IC20 to IC80 are the linear range of the assay.
To evaluate the specificity of the mAb against CPPU, CR values with six structural analogs were chosen for evaluation. The CR values were calculated using Equation (1):CR (%) = IC50 CPPU/IC50 structural analogue × 100(1)

[2] = test system: antisera to CPPU; design: method as in PMID 18989973, PMID 20681638, PMID 22526663; settings: high-affinity antisera, Abad-Fuentes group; cited from earlier work
[3] = test system: monoclonal antibody (mAb); design: method as in doi:10.14088/j.cnki.issn0439-8114.2016.21.037; settings: immunogen CPPU-H1-BSA, coating antigen CPPU-H2-OVA; cited from earlier work
[4] = test system: mice antisera against CPPU; experiment: icELISA characterization of mice antisera: inhibition by CPPU; type: binding, mouse; settings: 1 μg/mL of competitor
Experimental: At the first immunization, each eight-week-old Balb/c female mouse was injected subcutaneously with 200 µL of an emulsion containing an equal volume of immunogen (1.0 mg/mL) and Freund’s complete adjuvant. In the subsequent booster immunizations, Freund’s incomplete adjuvant was substituted for Freund’s complete adjuvant and was injected at two-week intervals. After the third booster injection, the antisera were collected 7 days after each injection and checked by icELISA.
as §1

[5] = test system: rabbit polyclonal antibody; design: method as in earlier work; settings: rabbit polyclonal antibody icELISA; cited from earlier work
[6] = test system: monoclonal antibody; design: method as in PMID 22526663; settings: previous mAb-based ELISA for CPPU; cited from earlier work
[7] = optimum conditions: coating antigen 250 ng/mL, antibody 1:8000 dilution, PBS, IgG-HRP 1:5000

Compound	Cross-Reactivity [1] [%]	IC50 [1, 7] [µg/mL]	further results
O=C(O)c1nc(Cl)ccc1Cl [3,6-Dichloropicolinic]	0.63	0.1662	–
O=C(Nc1ccccc1)Nc1ccnc(Cl)c1 [CPPU, Forchlorfenuron]	100	0.00104	IC50 [2]: < 1 nM; IC50 ([1]; IC50 1.04 ng/mL given in nM, read-out: IC50): 4.2 nM; limit of detection (LOD, IC10) ([1]; optimum conditions, IC10 value represents the LOD): 0.00016 µg/mL; IC50 [3]: 0.00389 µg/mL (≈ 0.0157 µM); Inhibition of CPPU ([4]; immunogen CPPU-COOH-BSA, coating antigen CPPU-COOH-OVA): 58.4%; Inhibition of CPPU ([4]; immunogen CPPU-COOH-KLH, coating antigen CPPU-COOH-BSA): 55.6%; Inhibition of CPPU ([4]; immunogen CPPU-COOH-KLH, coating antigen CPPU-COOH-OVA): 55.9%; Inhibition of CPPU ([4]; immunogen CPPU-COOH-THY, coating antigen CPPU-COOH-BSA): 83.3%; Inhibition of CPPU ([4]; immunogen CPPU-COOH-THY, coating antigen CPPU-COOH-OVA): 82.9%; IC50 [5]: 0.048 µg/mL (≈ 0.194 µM); LOD [5]: 1 ng/mL
Cc1ccc(NC(=O)N(C)C)cc1Cl [Chlortoluron]	1.62	0.06434	–
CN(C)C(=O)Nc1ccc(Cl)c(Cl)c1 [Diuron]	0.13	0.82379	–
CON(C)C(=O)Nc1ccc(Cl)c(Cl)c1 [Linuron]	0.46	0.22643	–
Nc1c(Cl)c(Cl)nc(C(=O)O)c1Cl [Picloram]	0.23	0.45072	–
O=C(Nc1ccccc1)Nc1cnns1 [Thidiazuron (TDZ), Thidiazuron]	5.36	0.01942	Cross-Reactivity ([1]; listed as TDZ): less than 6%; cross-reactivity (CR) [6]: 71%
